The structures appear in SMILES notation.

For this experiment, the target named is T1, human MC5R (hMC5R) (Homo sapiens, UniProt P33032).
T1 construct: purchased Perkin Elmer RBXMC5M400UA
T1 sequence (P33032 whole entry): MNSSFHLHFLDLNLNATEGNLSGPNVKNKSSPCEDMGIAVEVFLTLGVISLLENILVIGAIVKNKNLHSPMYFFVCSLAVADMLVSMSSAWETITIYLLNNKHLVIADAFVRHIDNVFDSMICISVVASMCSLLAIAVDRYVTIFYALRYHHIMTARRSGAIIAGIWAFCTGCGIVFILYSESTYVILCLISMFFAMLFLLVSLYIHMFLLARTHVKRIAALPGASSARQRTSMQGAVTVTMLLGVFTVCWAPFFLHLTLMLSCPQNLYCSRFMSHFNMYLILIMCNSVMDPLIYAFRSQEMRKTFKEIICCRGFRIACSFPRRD
Briefly: Human MC5R radioligand binding assay (membranes, [125I] NDP-MSH displacement). The conditions noted are these: hMC5R binding; tested as trifluoroacetate or hydrochloride salts, or free bases; read-out: MC5R radioligand IC50. In a few lines: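 Frozen human MC5R membranes incubated with test compound and in-house iodogen-labeled, HPLC-purified [125I]NDP-MSH for 1 hr at 37° C. Binding measured as displacement of the radioligand.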
A word on the IC50: it is the concentration at which inhibition is half-maximal. Take `CCC(CN1CC[C@@H](CNC(=O)c2ccc3ccccc3c2)N[C@@H](CCCN2CCCCC2)C1=O)c1ccccc1` (stereo partly drawn) [Compound 342, N-(((3S,5S)-2-oxo-1-(2-phenylbutyl)-3-(3-(piperidin-1-yl)propyl)-1,4-diazepan-5-yl)methyl)-2-naphthamide]: the IC50 is less than 0.1 µM.
Regarding `N=C(N)NCCC[C@@H]1N[C@H](CNC(=O)c2ccc3ccccc3c2)CCN(CC(C(=O)N2CCCCC2)c2ccccc2)C1=O` (stereo partly drawn) [Compound 343, N-(((3S,5S)-3-(3-guanidinopropyl)-2-oxo-1-(3-oxo-2-phenyl-3-(piperidin-1-yl)propyl)-1,4-diazepan-5-yl)methyl)-2-naphthamide], the IC50 is less than 10 µM.
For `N=C(N)NCCC[C@@H]1N[C@H](CNC(=O)c2ccc3ccccc3c2)CCN(CC(C(=O)Nc2ccccc2)c2ccccc2)C1=O` (stereo partly drawn) [Compound 344, N-(((3S,5S)-3-(3-guanidinopropyl)-2-oxo-1-(3-oxo-2-phenyl-3-(phenylamino)propyl)-1,4-diazepan-5-yl)methyl)-2-naphthamide], the IC50 was less than 10 µM.
Take `CCC(CN1CC[C@@H](CNC(=O)/C=C/c2ccc(Cl)cc2)N[C@@H](CCN)C1=O)c1ccccc1` (stereo partly drawn) [Compound 353, (E)-N-(((3S,5S)-3-(2-aminoethyl)-2-oxo-1-(2-phenylbutyl)-1,4-diazepan-5-yl)methyl)-3-(4-chlorophenyl)acrylamide]: the IC50 was less than 0.1 µM.
In the case of `C[C@H](CN1CC[C@@H](CNC(=O)c2ccc3ccccc3c2)N[C@@H](CCCN)C1=O)c1ccccc1` [Compound 356, N-(((3S,5S)-3-(3-aminopropyl)-2-oxo-1-((S)-2-phenylpropyl)-1,4-diazepan-5-yl)methyl)-2-naphthamide], the IC50 is less than 1 µM.
The figure for `C[C@@H](CN1CC[C@@H](CNC(=O)c2ccc3ccccc3c2)N[C@@H](CCCN)C1=O)c1ccccc1` [Compound 357, N-(((3S,5S)-3-(3-aminopropyl)-2-oxo-1-((R)-2-phenylpropyl)-1,4-diazepan-5-yl)methyl)-2-naphthamide] is less than 10 µM; for `CN(C)CC[C@@H]1N[C@H](CNC(=O)c2ccc3ccccc3c2)CCN(CC(c2ccccc2)c2ccccc2)C1=O` [Compound 358, N-(((3S,5S)-3-(2-(dimethylamino)ethyl)-1-(2,2-diphenylethyl)-2-oxo-1,4-diazepan-5-yl)methyl)-2-naphthamide] it is less than 1 µM.
On to `O=C(NC[C@@H]1CCN(CC(c2ccccc2)c2ccccc2)C(=O)[C@H](CCCN2CCCCC2)N1)c1ccc2cc(F)ccc2c1` [Compound 359, N-(((3S,5S)-1-(2,2-diphenylethyl)-2-oxo-3-(3-(piperidin-1-yl)propyl)-1,4-diazepan-5-yl)methyl)-6-fluoro-2-naphthamide], for which the IC50 is less than 0.1 µM.
As to `C#Cc1cc(C#C)cc(CN2CC[C@@H](CNC(=O)c3ccc4ccccc4c3)N[C@@H](CCCN)C2=O)c1` [Compound 360, N-(((3S,5S)-3-(3-aminopropyl)-1-(3,5-diethynylbenzyl)-2-oxo-1,4-diazepan-5-yl)methyl)-2-naphthamide], the IC50 is less than 1 µM.
In the case of `CCN(CC)CC[C@@H]1N[C@H](CNC(=O)c2ccc3ccccc3c2)CCN(CC(c2ccccc2)c2ccccc2)C1=O` [Compound 362, N-(((3S,5S)-3-(2-(diethylamino)ethyl)-1-(2,2-diphenylethyl)-2-oxo-1,4-diazepan-5-yl)methyl)-2-naphthamide], the IC50 was less than 0.1 µM.
With `CC[C@@H](CN1CC[C@@H](CNC(=O)c2ccc(Cl)c(Cl)c2)N[C@@H](CCN2CCCCC2)C1=O)c1ccccc1` [Compound 363, 3,4-dichloro-N-(((3S,5S)-2-oxo-1-((R)-2-phenylbutyl)-3-(2-(piperidin-1-yl)ethyl)-1,4-diazepan-5-yl)methyl)benzamide], the IC50 is less than 0.1 µM.
On to `CC[C@@H](CN1CC[C@@H](CNC(=O)/C=C/c2ccc(Cl)cc2)N[C@@H](CCN2CCCCC2)C1=O)c1ccccc1` [Compound 364, (E)-3-(4-chlorophenyl)-N-(((3S,5S)-2-oxo-1-((R)-2-phenylbutyl)-3-(2-(piperidin-1-yl)ethyl)-1,4-diazepan-5-yl)methyl)acrylamide], for which the IC50 was less than 0.1 µM.

(Values after patent US8008291B2 (Mimetica Pty Ltd, priority 2008, dated 2011).)
